Laboratory results reported in patent US20250213555A1, “SUBSTITUTED TETRAHYDROFURAN ANALOGS AS MODULATORS OF SODIUM CHANNELS” (VERTEX PHARMACEUTICALS INCORPORATED, priority 2021, published 2025).

Target: human Nav 1.8 (Homo sapiens, UniProt Q9Y5Y9)
Test: E-VIPR assay detecting and measuring Nav inhibition properties
Format: cell-based
Conditions: HEK cells expressing a truncated form of human Nav 1.8; compound numbers without "*" (not marked as run in the presence of human serum); read-out: measured IC50 value in the E-VIPR Assay
Method in brief: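 Nav inhibition was read by E-VIPR: cells were electrically stimulated while coumarin/oxonol FRET emissions were recorded. Cells were HEK expressing a truncated human Nav 1.8 and co-transduced with KIR2.1, and were assayed in 25% final human serum.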

Sequence of human Nav 1.8 (Q9Y5Y9 126-399 limits assumed): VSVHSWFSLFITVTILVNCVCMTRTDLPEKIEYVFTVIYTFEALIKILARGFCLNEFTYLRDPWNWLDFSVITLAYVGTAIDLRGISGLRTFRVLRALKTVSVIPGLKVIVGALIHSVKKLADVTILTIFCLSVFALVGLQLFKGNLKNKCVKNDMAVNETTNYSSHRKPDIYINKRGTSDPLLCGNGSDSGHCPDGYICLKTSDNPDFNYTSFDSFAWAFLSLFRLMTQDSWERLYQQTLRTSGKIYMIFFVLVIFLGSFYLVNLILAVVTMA
Sequence of human Nav 1.8 (Q9Y5Y9 660-890 limits assumed): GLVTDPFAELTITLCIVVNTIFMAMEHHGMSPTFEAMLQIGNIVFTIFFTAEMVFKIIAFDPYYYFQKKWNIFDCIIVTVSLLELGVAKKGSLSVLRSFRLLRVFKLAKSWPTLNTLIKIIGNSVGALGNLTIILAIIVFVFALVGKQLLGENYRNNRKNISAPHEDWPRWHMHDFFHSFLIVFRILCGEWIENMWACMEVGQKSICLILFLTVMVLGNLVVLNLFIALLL
Sequence of human Nav 1.8 (Q9Y5Y9 1148-1722 limits assumed): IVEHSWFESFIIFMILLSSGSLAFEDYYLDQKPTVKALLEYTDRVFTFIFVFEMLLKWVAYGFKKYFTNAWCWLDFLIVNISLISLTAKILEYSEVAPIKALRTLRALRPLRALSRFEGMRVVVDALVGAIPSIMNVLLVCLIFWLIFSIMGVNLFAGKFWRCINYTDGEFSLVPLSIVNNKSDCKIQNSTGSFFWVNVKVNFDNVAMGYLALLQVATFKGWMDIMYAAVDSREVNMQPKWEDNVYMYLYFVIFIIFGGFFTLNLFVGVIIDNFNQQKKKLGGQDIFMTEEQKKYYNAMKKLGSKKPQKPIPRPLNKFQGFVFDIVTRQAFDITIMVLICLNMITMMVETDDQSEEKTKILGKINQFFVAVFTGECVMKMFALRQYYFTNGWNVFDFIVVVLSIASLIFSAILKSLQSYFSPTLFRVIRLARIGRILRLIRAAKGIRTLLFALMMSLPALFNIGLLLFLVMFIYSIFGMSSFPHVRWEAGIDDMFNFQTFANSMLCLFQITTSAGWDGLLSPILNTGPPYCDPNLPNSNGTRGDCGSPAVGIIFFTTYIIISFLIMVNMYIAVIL

| SMILES | IC50 |
| --- | --- |
| C[C@H]1[C@@H](c2ccc(F)c(F)c2OCCC2(O)CC2)[C@H](C(=O)Nc2ccnc(C(N)=O)c2)O[C@@]1(C)C(F)(F)F [Compound 156, 4-((2R,3S,4S,5R)-3-(3,4-difluoro-2-(2-(1-hydroxycyclopropyl)ethoxy)phenyl)-4,5-dimethyl-5-(trifluoromethyl)tetrahydrofuran-2-carboxamido)picolinamide] | < 10 nM |
| C[C@@H](Oc1c([C@H]2[C@H](C(=O)Nc3ccnc(C(N)=O)c3)O[C@@](C)(C(F)(F)F)[C@H]2C)ccc(F)c1F)C1COC1 [Compound 157, 4-((2R,3S,4S,5R)-3-(3,4-difluoro-2-((R)-1-(oxetan-3-yl)ethoxy)phenyl)-4,5-dimethyl-5-(trifluoromethyl)tetrahydrofuran-2-carboxamido)picolinamide] | < 10 nM |
| C[C@H](Oc1c([C@H]2[C@H](C(=O)Nc3ccnc(C(N)=O)c3)O[C@@](C)(C(F)(F)F)[C@H]2C)ccc(F)c1F)C1COC1 [Compound 158, 4-((2R,3S,4S,5R)-3-(3,4-difluoro-2-((S)-1-(oxetan-3-yl)ethoxy)phenyl)-4,5-dimethyl-5-(trifluoromethyl)tetrahydrofuran-2-carboxamido)picolinamide] | < 10 nM |
| C[C@H]1[C@@H](c2ccc(F)c(F)c2OCC2(O)CC2)[C@H](C(=O)Nc2ccnc(C(N)=O)c2)O[C@@]1(C)C(F)(F)F [Compound 159, 4-((2R,3S,4S,5R)-3-(3,4-difluoro-2-((1-hydroxycyclopropyl)methoxy)phenyl)-4,5-dimethyl-5-(trifluoromethyl)tetrahydrofuran-2-carboxamido)picolinamide] | < 10 nM |
| COC1CC(Oc2c([C@H]3[C@H](C(=O)Nc4ccnc(C(N)=O)c4)O[C@@](C)(C(F)(F)F)[C@H]3C)ccc(F)c2F)C1 (stereo partly drawn) [Compound 162, 4-((2R,3S,4S,5R)-3-(3,4-difluoro-2-(3-methoxycyclobutoxy)phenyl)-4,5-dimethyl-5-(trifluoromethyl)tetrahydrofuran-2-carboxamido)picolinamide] | < 10 nM |
| C[C@H]1[C@@H](c2ccc(F)c(F)c2OC2CC(O)C2)[C@H](C(=O)Nc2ccnc(C(N)=O)c2)O[C@@]1(C)C(F)(F)F (stereo partly drawn) [Compound 163, 4-((2R,3S,4S,5R)-3-(3,4-difluoro-2-(3-hydroxycyclobutoxy)phenyl)-4,5-dimethyl-5-(trifluoromethyl)tetrahydrofuran-2-carboxamido)picolinamide] | < 10 nM |
| CC1C(c2ccc(F)c(F)c2OC2CC(O)C2)C(C(=O)Nc2ccnc(C(N)=O)c2)OC1(C)C(F)(F)F [Compound 166, 4-((2R,3S,4S,5R)-3-(3,4-difluoro-2-((1s,3R)-3-hydroxycyclobutoxy)phenyl)-4,5-dimethyl-5-(trifluoromethyl)tetrahydrofuran-2-carboxamido)picolinamide] | < 10 nM |
| C[C@H]1[C@@H](c2ccc(F)c(F)c2OCc2cn[nH]c2)[C@H](C(=O)Nc2ccnc(C(N)=O)c2)O[C@@]1(C)C(F)(F)F [Compound 168, 4-((2R,3S,4S,5R)-3-(2-((1H-pyrazol-4-yl)methoxy)-3,4-difluorophenyl)-4,5-dimethyl-5-(trifluoromethyl)tetrahydrofuran-2-carboxamido)picolinamide] | < 10 nM |
| C[C@H]1[C@@H](c2ccc(F)c(F)c2OCC(CO)C(F)(F)F)[C@H](C(=O)Nc2ccnc(C(N)=O)c2)O[C@@]1(C)C(F)(F)F (stereo partly drawn) [Compound 169, 4-((2R,3S,4S,5R)-3-(3,4-difluoro-2-(3,3,3-trifluoro-2-(hydroxymethyl)propoxy)phenyl)-4,5-dimethyl-5-(trifluoromethyl)tetrahydrofuran-2-carboxamido)picolinamide] | < 10 nM |
| CC(=O)C1CC(Oc2c([C@H]3[C@H](C(=O)Nc4ccnc(C(N)=O)c4)O[C@@](C)(C(F)(F)F)[C@H]3C)ccc(F)c2F)C1 (stereo partly drawn) [Compound 170, 4-((2R,3S,4S,5R)-3-(2-(3-acetylcyclobutoxy)-3,4-difluorophenyl)-4,5-dimethyl-5-(trifluoromethyl)tetrahydrofuran-2-carboxamido)picolinamide] | < 10 nM |
| C[C@H]1[C@@H](c2ccc(F)c(F)c2OC2CS(=O)(=O)C2)[C@H](C(=O)Nc2ccnc(C(N)=O)c2)O[C@@]1(C)C(F)(F)F [Compound 171, 4-((2R,3S,4S,5R)-3-(2-((1,1-dioxidothietan-3-yl)oxy)-3,4-difluorophenyl)-4,5-dimethyl-5-(trifluoromethyl)tetrahydrofuran-2-carboxamido)picolinamide] | 100 to 1000 nM |
| C=C(/C=C/Oc1c([C@H]2[C@H](C(=O)Nc3ccnc(C(N)=O)c3)O[C@@](C)(C(F)(F)F)[C@H]2C)ccc(F)c1F)C(F)(F)F [Compound 172, 4-((2R,3S,4S,5R)-3-(3,4-difluoro-2-(((E)-3-(trifluoromethyl)buta-1,3-dien-1-yl)oxy)phenyl)-4,5-dimethyl-5-(trifluoromethyl)tetrahydrofuran-2-carboxamido)picolinamide] | 10 to 100 nM |
| C[C@H]1[C@@H](c2ccc(F)c(F)c2OC2CC(F)(F)C2)[C@H](C(=O)Nc2ccnc(C(N)=O)c2)O[C@@]1(C)C(F)(F)F [Compound 173, 4-((2R,3S,4S,5R)-3-(2-(3,3-difluorocyclobutoxy)-3,4-difluorophenyl)-4,5-dimethyl-5-(trifluoromethyl)tetrahydrofuran-2-carboxamido)picolinamide] | < 10 nM |
| C[C@H]1[C@@H](c2ccc(F)c(F)c2OC2CC(C)(O)C2)[C@H](C(=O)Nc2ccnc(C(N)=O)c2)O[C@@]1(C)C(F)(F)F (stereo partly drawn) [Compound 174, 4-((2R,3S,4S,5R)-3-(3,4-difluoro-2-(3-hydroxy-3-methylcyclobutoxy)phenyl)-4,5-dimethyl-5-(trifluoromethyl)tetrahydrofuran-2-carboxamido)picolinamide] | < 10 nM |
| C[C@H]1[C@@H](c2ccc(F)c(F)c2OC2CCC(O)C2)[C@H](C(=O)Nc2ccnc(C(N)=O)c2)O[C@@]1(C)C(F)(F)F (stereo partly drawn) [Compound 175, 4-((2R,3S,4S,5R)-3-(3,4-difluoro-2-((3-hydroxycyclopentyl)oxy)phenyl)-4,5-dimethyl-5-(trifluoromethyl)tetrahydrofuran-2-carboxamido)picolinamide] | < 10 nM |
| C[C@H]1[C@@H](c2cc(Br)c(F)c(F)c2O)[C@H](C(=O)Nc2ccnc(C(N)=O)c2)O[C@@]1(C)C(F)(F)F [Compound 176, 4-((2R,3S,4S,5R)-3-(5-bromo-3,4-difluoro-2-hydroxyphenyl)-4,5-dimethyl-5-(trifluoromethyl)tetrahydrofuran-2-carboxamido)picolinamide] | ≥ 1000 nM |
| COc1c([C@H]2[C@H](C(=O)Nc3ccnc(C(N)=O)c3)O[C@@](C)(C(F)(F)F)[C@H]2C)cc(OCc2ccccc2)c(F)c1F [Compound 177, 4-((2R,3S,4S,5R)-3-(5-(benzyloxy)-3,4-difluoro-2-methoxyphenyl)-4,5-dimethyl-5-(trifluoromethyl)tetrahydrofuran-2-carboxamido) picolinamide] | < 10 nM |
| COc1c([C@H]2[C@H](C(=O)Nc3ccnc(C(N)=O)c3)O[C@@](C)(C(F)(F)F)[C@H]2C)cc(O)c(F)c1F [Compound 178, 4-((2R,3S,4S,5R)-3-(3,4-difluoro-5-hydroxy-2-methoxyphenyl)-4,5-dimethyl-5-(trifluoromethyl)tetrahydrofuran-2-carboxamido) picolinamide] | < 10 nM |
| COc1c([C@H]2[C@H](C(=O)Nc3ccnc(C(N)=O)c3)O[C@@](C)(C(F)(F)F)[C@H]2C)cc(OC2CC(F)(F)C2)c(F)c1F [Compound 179, 4-((2R,3S,4S,5R)-3-(5-(3,3-difluorocyclobutoxy)-3,4-difluoro-2-methoxyphenyl)-4,5-dimethyl-5-(trifluoromethyl)tetrahydrofuran-2-carboxamido) picolinamide] | 100 to 1000 nM |
| Cc1cnc(C(N)=O)cc1NC(=O)[C@@H]1O[C@@](C)(C(F)(F)F)[C@@H](C)[C@H]1c1ccc(F)c(F)c1OCCN1CC2(COC2)C1 [Compound 181, 4-((2R,3S,4S,5R)-3-(2-(2-(2-oxa-6-azaspiro[3.3]heptan-6-yl)ethoxy)-3,4-difluorophenyl)-4,5-dimethyl-5-(trifluoromethyl)tetrahydrofuran-2-carboxamido)-5-methylpicolinamide] | 10 to 100 nM |
| C[C@H]1[C@@H](c2ccc(F)c(F)c2OCC(=NO)C2CC2)[C@H](C(=O)Nc2ccnc(C(N)=O)c2)O[C@@]1(C)C(F)(F)F [Compound 182, 4-((2R,3S,4S,5R)-3-(2-(2-cyclopropyl-2-(hydroxyimino)ethoxy)-3,4-difluorophenyl)-4,5-dimethyl-5-(trifluoromethyl)tetrahydrofuran-2-carboxamido) picolinamide] | < 10 nM |
| C/C(COc1c([C@H]2[C@H](C(=O)Nc3ccnc(C(N)=O)c3)O[C@@](C)(C(F)(F)F)[C@H]2C)ccc(F)c1F)=N\O [Compound 185, 4-((2R,3S,4S,5R)-3-(3,4-difluoro-2-((E)-2-(hydroxyimino)propoxy)phenyl)-4,5-dimethyl-5-(trifluoromethyl)tetrahydrofuran-2-carboxamido)picolinamide] | < 10 nM |
| CC(C)C(COc1c([C@H]2[C@H](C(=O)Nc3ccnc(C(N)=O)c3)O[C@@](C)(C(F)(F)F)[C@H]2C)ccc(F)c1F)=NO [Compound 186, 4-((2R,3S,4S,5R)-3-(3,4-difluoro-2-(2-(hydroxyimino)-3-methylbutoxy)phenyl)-4,5-dimethyl-5-(trifluoromethyl)tetrahydrofuran-2-carboxamido)picolinamide] | < 10 nM |
| C[C@H]1[C@@H](c2ccc(F)c(F)c2OC/C(=N\O)C(C)(C)C)[C@H](C(=O)Nc2ccnc(C(N)=O)c2)O[C@@]1(C)C(F)(F)F [Compound 189, 4-((2R,3S,4S,5R)-3-(3,4-difluoro-2-((Z)-2-(hydroxyimino)-3,3-dimethylbutoxy)phenyl)-4,5-dimethyl-5-(trifluoromethyl)tetrahydrofuran-2-carboxamido)picolinamide] | < 10 nM |
